The source of these data is patent publication US6433012B1, “Method for inhibiting inflammatory disease” (Large Scale Biology Corp., priority 1998, dated 2002).

The subject of data set [1] is MDA MB-231 human breast carcinoma xenografts. The experiment in a line: Tumor growth delay, MDA MB-231 xenografts. The format is in vivo, Swiss NCr nude (nu/nu) female mice. The settings on record: oral treatment, 6 weeks of therapy. On the procedure:
Intraperitoneally administered cyclophosphamide (CTX; Cytoxan; 150 mg/kg), which is used in some regimens for adjuvant breast cancer therapy was used as a positive control.

For another data set, the system named is MCF-7 cell cultures. The experiment in a line: Cytotoxicity in vitro (reduction of cell number). The format is cell-based. The settings on record: Homo sapiens, MCF7; treated for 48 h; read-out: IC50 (50% reduction of cell number relative to vehicle-treated control).
Data set [2] has as its system MDA MB-231 and MCF-7 cells. Nature of the data set: Nuclear morphology of breast carcinoma cells. The format is cell-based, human. The settings on record: 1 μ for 48 h.
The test system of data set [3] is rhodamine-labeled tubulin. Nature of the data set: Cell-free fluorescence assay of microtubule assembly. The format is biochemical. To be noted: 15 μM tubulin, GTP. The source says: Microtubules are major cytoskeletal components composed of α- and β-tubulin heterodimers bound with GTP. […] The effect of the drug on microtubule assembly was investigated directly by using a cell-free fluorescence assay involving the visualization of microtubule formation from rhodamine-labeled tubulin and microtubule seeds in the presence of GTP.

Data set [4] deals with corneal neovascularization induced by bFGF. Nature of the data set: Rat corneal neovascularization assay. The format is in vivo, Fischer 344 rats. Set-up: total vascular area: unit not given here. The settings on record: oral gavage 500 mg/kg twice a day for 6 days. On the procedure: Hydron polymer (Interferon Sciences, New Brunswick, N.J.) was dissolved in ethanol to a concentration of 12% (W/V). A 1:1 mixture of 12% Hydron and bFGF/Sucralfate/PBS suspension was made as a casting solution and 3 μl of this solution was pipetted onto a sterile Teflon sheet and allowed to dry overnight at 4° C. Each dried pellet contained 50 ng of bFGF and 20 μg of Sucralfate. Female Fischer 344 rats (16 animals, 8-10 weeks old at an approximate weight of 150 g; Charles River, Raleigh, N.C.) were used for this study. Animals were kept in temperature-controlled rooms (24° C.) on a 12-h light-dark cycle with access to rat chow and tap water ad libitum. Following anesthesia with sodium pentobarbital given i.p. at 50 mg/kg body weight, a rat was placed under a dissecting microscope and a drop of Ophthaine was applied on the cornea of one eye. The eye was proptosed by stretching sutures on the upper and lower eyelids. A small superficial incision was made through the cornea center and a micropocket was created by separating the lamella of the stroma toward the limbus with a modified iris spatula. The distance between the bottom of the micropocket and the limbus was about 1 mm. A prepared sterile Hydron pellet was rehydrated with a drop of sterile saline and placed into the corneal micropocket. The cornea was covered with gentamycin ophthalmic ointment (Alleran, Inc., Irvine, Calif.) after surgery. Rats were randomly divided into treated and control groups. […] The drug was administrated by oral gavage at a dose of 500 mg/kg body weight, twice a day for 6 days beginning from the first postoperative day. The controls received vehicle only, and body weights of all animals were monitored and recorded daily. On the seventh postoperative day, animals were anesthetized with nembutal (50 mg/kg) and the thoracic aorta was rapidly cannulated in a retrograde fashion with PE 100 tubing. An incision was made in the right auricle for drainage of blood and saline during flushing and 40-60 mL of saline was injected via the tubing to wash out the blood from the vessels in the upper part of the body until the eyes, ears and nose became pale. Then 10 mL of Higgins waterproof Indian ink (Sanford, Bellwood, Ill.) was injected via the tubing to visualize corneal vessels. The eyes were enucleated, fixed in 10% neutralized formaldehyde buffer, and the corneas were dissected and mounted on slides. Slide-mounted corneal images were taken by using a Carl Zeiss MPS intravital microscope (Carl Zeiss, Hanover, Md.) with a camera connected to a PC equipped with Scion Image software and a frame grabber (Scion Corporation, Frederick, Md.).
For the quantitative analysis of corneal neovascularization, various parameters of the corneal images were measured by an investigator who was unaware of the treatment protocol. The shortest distance between the implanted pellet and the limbus was marked as the midline and was measured. The arc along the limbus for the entire vascularized area was drawn and the length of the arc was measured. The circumference of this area was calculated by using the following equation: Circumference (in clock hours)=Arc length×360/πD/30, where D is the corneal diameter. The marked arc was evenly divided into six sections, distances between vessel tips and the limbus at the five intersection points of the arc were measured, and the average vessel length was calculated. The perpendicular distance between the tip of the longest vessel and the limbus (longest vessel length) was also measured. To measure the percent vascular volume (i.e., the vascular volume density), three circles with a diameter of 100 pixels were located between the pellet and the limbus on the midline in the second and the fifth sections, respectively. The total area of each circle (Area-T) and the area for vessels in each circle (total black pixels) were measured (Area-V). […]

One may read the IC50 as the concentration at which inhibition is half-maximal. With `COC(=O)c1cc(I)c(Oc2ccc(OC)cc2)c(I)c1` [BTO-956, methyl-3,5-diiodo-4-(4′-methoxyphenoxy)benzoate], in data set [1], the “growth of tumors (relative mean tumor volume)” value is “suppressed”. The IC50 in the data set with MCF-7 cell cultures was 600 nM. Besides, the nuclear morphology entry in data set [2] is recorded as “a significant number had condensed or fragmented nuclei”. The microtubule formation entry in data set [3] (compound 1 μM) is on record as “much shorter structures”. Moreover, the microtubule formation result in data set [3] (compound 10 μM) was “The same effect was observed”. Further, in data set [4], the “body weight loss or behavioral changes” value was “No significant body weight loss or behavioral changes”. In addition, in data set [4] (mean ± SEM), the average vessel length was found to be 0.42±0.07 mm, the “circumference of corneal neovascularization” value is 1.74±0.11 clock hours, the maximum vessel length amounted to 0.76±0.09 mm and the total vascular area is on record as 1.52±0.27. The compound also registered a vascular volume density in data set [4] (mean ± SEM) of 0.037±0.01. Besides, the “reduction of average vessel length relative to controls” value in data set [4] (p<0.001) was determined as 50%. For the same compound, in data set [4] (p<0.01), the “decrease of total vascular area compared with controls” value turned out to be 65%, the “decrease of vascular volume density compared with controls” value came to 84.5%, the “reduction of circumference of neovascularization compared with controls” value amounted to 45% and the “reduction of maximum vessel length relative to controls” value is given as 38%.
